Test results published in PMC4529466, “Intradermal insulin infusion achieves faster insulin action than subcutaneous infusion for 3-day wear” (Drug Delivery and Translational Research, 2015).

System: blood glucose
Assay: Postprandial blood glucose pharmacodynamics after meal bolus, 3-day ID vs SC infusion
Format: in vivo, human (T1DM patients)
Details: ID; for BGavg0–4 / BGmax0–4 / ΔAUC-BG0–4 / ΔBGmax0–4 / BG1 / ΔBG1 / BG1.5 / ΔBG1.5 / BG2 / ΔBG2 / BG4 / ΔBG4: mean ± SD; for BG1 / ΔBG1: at 1 h; for BG1.5 / ΔBG1.5: at 1.5 h; for BG2 / ΔBG2: at 2 h; for BG4 / ΔBG4: at 4 h
Description: This was a single center, open-label, two-period crossover study, randomized by infusion order, in T1DM patients on continuous subcutaneous insulin infusion (CSII). The protocol was approved by an independent ethics committee (Ethikkommission der Ärztekammer Nordrhein, Düsseldorf, Germany), appropriate regulatory bodies (German Federal Institute for Drugs and Medical Devices (BfArM)), and conducted in compliance with good clinical practice (GCP), the Declaration of Helsinki, and applicable regulatory requirements.
The study was completed over a multi-week period consisting of three study visits: a screening visit (V1) and two interventional visits (V2 and V3). After establishing eligibility and enrollment, patients received treatment during two interventional visits: one SC and one ID basal/bolus infusion of insulin aspart (NovoRapid® U-100, Novo Nordisk, Copenhagen, Denmark) administered over 3 days in a randomized order.
Individual meal bolus doses were determined based on patient self-reported insulin to carbohydrate ratios and insulin sensitivity, historical self-reported insulin usage for meal coverage, and clinician review and adjustment of insulin usage during the in-clinic BG stabilization period the evening prior to the first morning meal. Basal insulin infusion rates were initiated based on the patient’s known daily delivery profile and could be adjusted by the clinician to maintain levels within 70–160 mg/dL according to a predetermined sliding scale and hourly changes in glycemia. A continuous glucose monitor (Seven Plus®, DexCom Inc., San Diego, CA) calibrated per manufacturer’s recommendations was applied to continuously monitor glycemia as a safety measure, in addition to periodic blood sampling for BG determination.
After maintaining targeted blood glucose range during the preceding night, bolus insulin doses were administered via the respective infusion catheter prior to standardized breakfast and lunch test meals on each of the three treatment days. Each meal insulin bolus was calculated based on the patient’s insulin sensitivity and previous hours change in BG per sliding scale then delivered immediately prior to breakfast (t = 0 min) and lunch (t = 360 min) consumption. Breakfast was a high glycemic index (60 g carbohydrates) solid meal, and lunch was a mixed meal based on the individual’s calculated daily energy intake and equivalent in caloric composition by day. Breakfast and lunch meals were consumed within 15 min followed by serial blood sampling with BG monitoring for a period of 6 and 4 h, respectively. Patients were asked to remain sedentary for 2 h after meals. Identical study procedures were utilized for the remaining dosing visit days (Fig. 2).
To assess insulin absorption kinetics and glycemic response, blood samples for measurements of insulin aspart and blood glucose in serum were drawn at predefined time points throughout dosing visits. Serial samples for safety BG determination, but not PK analysis, were obtained at a minimum every 2 h. Meal PK/PD analysis samples were acquired immediately pre-bolus and for 4–6 h post-bolus for breakfast and lunch meals, with a higher frequency during the first 2 h to capture insulin and BG peak levels {Post-bolus breakfast time points (min): 0, 10, 15, 20, 25, 30, 35, 40, 45, 50, 55, 60, 65, 70, 80, 90, 120, 150, 180, 210, 240, 300, 330, 360; Post-bolus lunch time points (min): 0, 10, 20, 30, 40, 50, 60, 70, 80, 90, 120, 180, 240, 300}. Sampling times were based on previous clinical study experience for bolus microneedle insulin delivery and had increased sampling frequency in the first 90 min post-delivery to capture the rapid insulin peaks from microneedle ID delivery. Blood samples for evening meal and basal period PK assessment could not be obtained due to daily blood draw volume limits for patient safety. Serum insulin aspart was measured by a third party laboratory (IKFE GmbH, Mainz, Germany) using a validated insulin assay (Invitron ELISA kit). […]

[1] = 0–4 h, Days 1–3 combined, all test meals, n = 150–156
[2] = Days 1–3 combined, all test meals, n = 150–156

Which “Intra-subject variability of BGmax” value (0–2 h, across all study days and meals) does the source give for insulin aspart here?
The value was 23.8 %CV.

What about the “BGavg0–4” value (0–4 h, Day 1, across meals) of the same substance?
Its value is 141 ± 44.0 mg/dL.

What about the “BGmax0–4” value (0–4 h, Day 1, across meals) of the same substance?
The value was 178 ± 49.1 mg/dL.

And the “ΔAUC-BG0–4” value (0–4 h, Day 1, across meals)?
The value was 105 ± 148 mg·h/dL.

What about the “ΔBGmax0–4” value (0–4 h, Day 1, across meals) of the same substance?
The value was 64.0 ± 43.6 mg/dL.

And the “BGavg0–4” value (0–4 h, Day 2, across meals)?
Its value is 148 ± 41.3 mg/dL.

And the “BGmax0–4” value (0–4 h, Day 2, across meals)?
Its value is 186 ± 43.2 mg/dL.

What about the “ΔAUC-BG0–4” value (0–4 h, Day 2, across meals) of the same substance?
Its value is 120 ± 140 mg·h/dL.

What about the “ΔBGmax0–4” value (0–4 h, Day 2, across meals) of the same substance?
The value was 69.4 ± 36.8 mg/dL.

What about the “BGavg0–4” value (0–4 h, Day 3, across meals) of the same substance?
The value was 156 ± 45.0 mg/dL.

What about the “BGmax0–4” value (0–4 h, Day 3, across meals) of the same substance?
The value was 188 ± 49.8 mg/dL.

And the “ΔAUC-BG0–4” value (0–4 h, Day 3, across meals)?
The value was 156 ± 140 mg·h/dL.

And the “ΔBGmax0–4” value (0–4 h, Day 3, across meals)?
The value was 70.4 ± 42.2 mg/dL.

What about the “BGavg0–4” value [1] of the same substance?
Its value is 148 ± 43.6 mg/dL.

And the “BGmax0–4” value [1]?
The value was 184 ± 47.4 mg/dL.

What about the “ΔAUC-BG0–4” value [1] of the same substance?
The value was 126 ± 144 mg·h/dL.

What about the “ΔBGmax0–4” value [1] of the same substance?
The value was 67.8 ± 40.8 mg/dL.

What about the “Intra-subject variability of BGmax” value (0–4 h, across all study days and meals) of the same substance?
The value was 21.1 %CV.

What about the BG1 (Day 1, across meals) of the same substance?
The BG1 was 151 ± 56.0 mg/dL.

And the ΔBG1 (Day 1, across meals)?
Its ΔBG1 is 33.3 ± 38.2 mg/dL.

What about the BG1 (Day 2, across meals) of the same substance?
The BG1 was 155 ± 45.8 mg/dL.

And the ΔBG1 (Day 2, across meals)?
The ΔBG1 was 35.8 ± 35.4 mg/dL.

What about the BG1 (Day 3, across meals) of the same substance?
The BG1 was 156 ± 45.2 mg/dL.

What about the ΔBG1 (Day 3, across meals) of the same substance?
The ΔBG1 was 38.2 ± 32.9 mg/dL.

And the BG1 [2]?
Its BG1 is 154 ± 49.3 mg/dL.

What about the ΔBG1 [2] of the same substance?
Its ΔBG1 is 35.6 ± 35.5 mg/dL.

And the BG1.5 (Day 1, across meals)?
The BG1.5 was 146 ± 52.2 mg/dL.

And the ΔBG1.5 (Day 1, across meals)?
The ΔBG1.5 was 31.0 ± 44.4 mg/dL.

What about the BG1.5 (Day 2, across meals) of the same substance?
Its BG1.5 is 155 ± 51.4 mg/dL.

And the ΔBG1.5 (Day 2, across meals)?
Its ΔBG1.5 is 35.8 ± 44.4 mg/dL.

And the BG1.5 (Day 3, across meals)?
The BG1.5 was 163 ± 51.3 mg/dL.

And the ΔBG1.5 (Day 3, across meals)?
The ΔBG1.5 was 45.7 ± 41.2 mg/dL.

What about the BG1.5 [2] of the same substance?
Its BG1.5 is 154 ± 51.8 mg/dL.

What about the ΔBG1.5 [2] of the same substance?
The ΔBG1.5 was 37.2 ± 43.6 mg/dL.

What about the BG2 (Day 1, across meals) of the same substance?
The BG2 was 145 ± 54.5 mg/dL.

What about the ΔBG2 (Day 1, across meals) of the same substance?
The ΔBG2 was 30.2 ± 48.5 mg/dL.

What about the BG2 (Day 2, across meals) of the same substance?
The BG2 was 152 ± 51.9 mg/dL.

And the ΔBG2 (Day 2, across meals)?
The ΔBG2 was 33.1 ± 46.1 mg/dL.

What about the BG2 (Day 3, across meals) of the same substance?
The BG2 was 165 ± 50.5 mg/dL.

And the ΔBG2 (Day 3, across meals)?
The ΔBG2 was 48.0 ± 43.3 mg/dL.

And the BG2 [2]?
Its BG2 is 154 ± 52.7 mg/dL.

What about the ΔBG2 [2] of the same substance?
The ΔBG2 was 36.7 ± 46.5 mg/dL.

What about the BG4 (Day 1, across meals) of the same substance?
The BG4 was 145 ± 52.1 mg/dL.

What about the ΔBG4 (Day 1, across meals) of the same substance?
Its ΔBG4 is 29.3 ± 54.1 mg/dL.

And the BG4 (Day 2, across meals)?
The BG4 was 147 ± 55.5 mg/dL.

What about the ΔBG4 (Day 2, across meals) of the same substance?
Its ΔBG4 is 28.0 ± 55.7 mg/dL.

What about the BG4 (Day 3, across meals) of the same substance?
The BG4 was 160 ± 60.1 mg/dL.

And the ΔBG4 (Day 3, across meals)?
Its ΔBG4 is 43.6 ± 54.8 mg/dL.

What about the BG4 [2] of the same substance?
The BG4 was 150 ± 55.9 mg/dL.

And the ΔBG4 [2]?
The ΔBG4 was 33.3 ± 54.9 mg/dL.

What about the “BG at 1 h” value (p = 0.0121 vs SC) of the same substance?
The value was 154.

What about the “Intra-subject variability of BG” value (time 1 h, across all study days and meals) of the same substance?
The value was 29.1 %CV.

What about the “Intra-subject variability of BG” value (time 1.5 h, across all study days and meals) of the same substance?
The value was 31.5 %CV.

What about the “Intra-subject variability of ΔBG” value (time 2 h, across all study days and meals) of the same substance?
The value was 90.2 %CV.
